Results as given in PubChem BioAssay (NCI).
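All cell lines were grown in 96-well plates and treated with compound for 48 hours. At the GI50, growth is halved. TGI is the concentration that stops growth completely.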

Key:
Experiment in all cases: NCI tumour cell line growth inhibition, 48 h
NCI-H226 lung = test system: NCI-H226 lung
NCI-H23 lung = test system: NCI-H23 lung
NCI-H460 lung = test system: NCI-H460 lung
NCI-H522 lung = test system: NCI-H522 lung
NCI/ADR-RES ovarian = test system: NCI/ADR-RES ovarian
OVCAR-3 ovarian = test system: OVCAR-3 ovarian
OVCAR-4 ovarian = test system: OVCAR-4 ovarian
OVCAR-5 ovarian = test system: OVCAR-5 ovarian
OVCAR-8 ovarian = test system: OVCAR-8 ovarian
PC-3 prostate = test system: PC-3 prostate
RPMI-8226 leukemia = test system: RPMI-8226 leukemia
SF-268 CNS = test system: SF-268 CNS
SF-295 CNS = test system: SF-295 CNS
SF-539 CNS = test system: SF-539 CNS
SK-MEL-2 melanoma = test system: SK-MEL-2 melanoma
SK-MEL-28 melanoma = test system: SK-MEL-28 melanoma
SK-MEL-5 melanoma = test system: SK-MEL-5 melanoma
SK-OV-3 ovarian = test system: SK-OV-3 ovarian
SN12C renal = test system: SN12C renal
SNB-19 CNS = test system: SNB-19 CNS
SNB-75 CNS = test system: SNB-75 CNS
SR leukemia = test system: SR leukemia
SW-620 colon = test system: SW-620 colon
T-47D breast = test system: T-47D breast
TK-10 renal = test system: TK-10 renal
U251 CNS = test system: U251 CNS
UACC-257 melanoma = test system: UACC-257 melanoma
UACC-62 melanoma = test system: UACC-62 melanoma
UO-31 renal = test system: UO-31 renal

## O=C(CCCCCCNC(=O)C(O)(O)C(F)(F)F)Nc1ncc(-c2ccc(Br)cc2)s1
NCI-H226 lung
  TGI: 14400 nM
NCI-H23 lung
  GI50: 1210 nM
  TGI: 6560 nM
NCI-H460 lung
  GI50: 890 nM
  TGI: 8200 nM
NCI-H522 lung
  GI50: 1450 nM
  TGI: 13800 nM
NCI/ADR-RES ovarian
  GI50: 1350 nM
  TGI: 7110 nM
OVCAR-3 ovarian
  GI50: 781 nM
  TGI: 2910 nM
OVCAR-4 ovarian
  GI50: 2480 nM
  TGI: > 31800 nM
OVCAR-5 ovarian
  GI50: 686 nM
  TGI: 5570 nM
OVCAR-8 ovarian
  GI50: 1370 nM
  TGI: > 31800 nM
PC-3 prostate
  GI50: 957 nM
  TGI: > 31800 nM
RPMI-8226 leukemia
  GI50: 452 nM
  TGI: > 31800 nM
SF-268 CNS
  GI50: 1290 nM
  TGI: 12200 nM
SF-295 CNS
  GI50: 628 nM
  TGI: 1510 nM
SF-539 CNS
  GI50: 1230 nM
  TGI: > 31800 nM
SK-MEL-2 melanoma
  GI50: 1360 nM
  TGI: 18800 nM
SK-MEL-28 melanoma
  GI50: 1120 nM
  TGI: > 31800 nM
SK-MEL-5 melanoma
  GI50: 972 nM
  TGI: 3430 nM
SK-OV-3 ovarian
  GI50: 1020 nM
  TGI: 3100 nM
SN12C renal
  GI50: 1250 nM
  TGI: 18700 nM
SNB-19 CNS
  GI50: 1320 nM
  TGI: 6610 nM
SNB-75 CNS
  GI50: 1840 nM
  TGI: > 31800 nM
SR leukemia
  GI50: 478 nM
  TGI: > 31800 nM
SW-620 colon
  GI50: 840 nM
  TGI: 3100 nM
T-47D breast
  GI50: 808 nM
  TGI: 25800 nM
TK-10 renal
  GI50: 456 nM
  TGI: > 31800 nM
U251 CNS
  GI50: 830 nM
  TGI: > 31800 nM
UACC-257 melanoma
  GI50: 1920 nM
  TGI: > 31800 nM
UACC-62 melanoma
  GI50: 675 nM
  TGI: 2380 nM
UO-31 renal
  GI50: 745 nM
  TGI: 4410 nM
